25 molecules from patent US12435060B2, “Acylamino bridged heterocyclic compound, and composition and application thereof” (BEIJING SCITECH-MQ PHARMACEUTICALS LIMITED, priority 2019, dated 2025) can be followed below.

SMILES strings stand for the structures.

This test relates to HT29 cells. Put plainly: Inhibition of cell necrosis (CCK8 method), induced programmed necrosis of HT29 cells. It counts as cell-based. The following applies: Homo sapiens, HT-29; rescue from necrosis induced by TNF-α 20 ng/mL, AT-406 1 μM, Z-VAD-FMK 20 μM; 16-20 hours; CCK-8, OD 450 nm. How it is done: Assay Example 2. Assay Method for Compounds Inhibiting Cell Necrosis (CCK8 Method)
In this assay example 2, under the condition of inducing programmed cell necrosis, different concentrations of the test compounds were added to test the IC50 of the rescue effect of the test compounds on the programmed necrosis.
• Compounds: Dissolved in DMSO to make a 10 mM solution; • TNF-α: The initial concentration was 100 μg/mL; • Z-VAD-FMK: Dissolved in DMSO to make a 10 mM solution; • AT-406: Dissolved in DMSO to make a 10 mM solution. I. Experimental Steps • 1) Compound dilution: All test compounds were dissolved in DMSO to prepare a 10 mM stock solution, and the first concentration gradient dilution of the test compounds was completed in DMSO. The gradient dilution factor was 4 times and 9 concentration gradients were made; A 40-fold overall dilution of all compounds was completed in the cell culture medium, and the resulting compound was 10× compound, which will be added to the wells of the 96-well plate containing cells, so that the final cell culture medium was 1× the designed final concentration. The general drug design is 9 concentration gradients, of which the highest final concentration is 25000 nM, the lowest concentration after 4-fold dilution of 9 concentrations is 0.38 nM, and the final concentration of DMSO in all wells is 0.25%. The compound dilution process is shown in FIG. 3. • 2) HT 29 cells in good growth condition were selected, trypsinized, the cells was collected by centrifugation, resuspended in McCOY's 5A complete medium (containing 10% FBS) and counted, and the number of cells and survival rate were recorded. • 3) Cells were inoculated to the 60 wells in the middle of the 96-well culture plate at a density of 12000 cells/80 μL/well, surrounding wells were filled with sterile water, and incubated overnight. • 4) 10 μL of the 10× compound diluted with the medium was added to the assay wells, 10 μL of McCOY's 5A complete medium containing 2.5% DMSO was added to the inducer-free wells and the control wells, mixed and shaked, and incubated for 30 minutes. • 5) Then 10 μL of inducer mixture (TNF-α, AT-406, Z-VAD-FMK with the final concentration of 20 ng/mL, 1 μM, 20 μM) was added into the assay wells and control wells. 10 μL McCOY's 5A complete medium was added to wells without inducer. Cells were cultured in an incubator with 5% CO2, at 37° C. • 6) After culturing for 16-20 hours, 10 μL of CCK-8 reagent was added to each well, and incubated for about 2 hours; • 7) The OD value was read at 450 nm on the multi-function plate reader. • 8) Data processing: Inhibition rate of necrosis (%)=100*(X−B)/(A−B) • A: The OD values of the wells without inducer (containing cells, CCK-8, without compound and inducer); • […]: OD values of assay wells (containing cells, CCK-8, compound, inducer); • B: OD values of control wells (containing cells, CCK-8, inducer, without compound). Then the value were imported into Graphpad Prism5 software for curve fitting and the IC50 values were calculated.
In general terms: Tetrazolium dyes change colour on reduction, which living cells bring about.
What is called IC50 is the point on the concentration scale where inhibition reaches its midpoint. `Cc1ccc(C2CC2)cc1-c1ccnc(NC(=O)c2nnc(Cc3ccccc3)[nH]2)c1` [Example 45, 5-benzyl-N-(4-(5-cyclopropyl-2-methylphenyl)pyridin-2-yl)-4H-1,2,4-triazole-3-carboxamide] yielded a 50% inhibitory concentration (IC50) of 100 to 1000 nM.
The figure for `Cc1ccc(OCCCC(C)(C)O)cc1-c1ccnc(NC(=O)c2nnc(CC3CCOCC3)[nH]2)c1` [Example 177, N-(4-(5-((4-hydroxy-4-methylpentyl)oxy)-2-methylphenyl)pyridin-2-yl)-5-((tetrahydro-2H-pyran-4-yl)methyl)-4H-1,2,4-triazole-3-carboxamide] is not above 100 nM; for `O=C(Nc1cc(-c2cc(OCC3CCOCC3)ccc2C(F)(F)F)ccn1)c1nnc(CC2CCCCC2)[nH]1` [Example 304, 5-(cyclohexylmethyl)-N-(4-(5-((tetrahydro-2H-pyran-4-yl)methoxy)-2-(trifluoromethyl)phenyl)pyridin-2-yl)-4H-1,2,4-triazole-3-carboxamide] it is not above 100 nM.
Consider `Cc1cc(F)cc(Cc2nnc(C(=O)Nc3cc(-c4cc(OCCCC(C)(C)O)ccc4Cl)ccn3)[nH]2)c1` [Example 344, N-(4-(2-chloro-5-((4-hydroxy-4-methylpentyl)oxy)phenyl)pyridin-2-yl)-5-(3-fluoro-5-methylbenzyl)-4H-1,2,4-triazole-3-carboxamide], for which the IC50 lay in the range of 100 to 1000 nM.
Turning to `Cc1ccc(OC(C)C)cc1-c1cncc(NC(=O)c2nnc(Cc3ccccc3)[nH]2)c1` [Example 113, 5-benzyl-N-(5-(5-isopropoxy-2-methylphenyl)pyridin-3-yl)-4H-1,2,4-triazole-3-carboxamide], the 50% inhibitory concentration (IC50) was more than 10000 nM.
The value for `COc1ncccc1-c1ccnc(NC(=O)c2nnc(Cc3ccccc3)[nH]2)c1` [Example 21, 5-benzyl-N-(2-methoxy-[3,4′-bipyridin]-2′-yl)-4H-1,2,4-triazole-3-carboxamide] was 1000 to 10000 nM; that for `CC(C)(C)OCCOc1ccc(Cl)c(-c2ccnc(NC(=O)c3nnc(CC4CCCC4)[nH]3)c2)c1` [Example 393, N-(4-(5-(2-(tert-butoxy)ethoxy)-2-chlorophenyl)pyridin-2-yl)-5-(cyclopentylmethyl)-4H-1,2,4-triazole-3-carboxamide] was not above 100 nM.
The value for `CCOc1ccccc1-c1ccnc(NC(=O)c2nnc(Cc3ccccc3)[nH]2)c1` [Example 4, 5-benzyl-N-(4-(2-ethoxyphenyl)pyridin-2-yl)-4H-1,2,4-triazole-3-carboxamide] was 1000 to 10000 nM; that for `Cc1ccc(OCCCCC(C)(C)O)cc1-c1cc(NC(=O)c2nnc(CC3CCCCC3)[nH]2)ncc1F` [Example 495, 5-(cyclohexylmethyl)-N-(5-fluoro-4-(5-((5-hydroxyl-5-methylhexyl)oxy)-2-methylphenyl)pyridin-2-yl)-4H-1,2,4-triazole-3-carboxamide] was not above 100 nM; that for `CC(C)(O)CCCCOc1ccc(F)c(-c2cc(NC(=O)c3nnc(CC4CCCCC4)[nH]3)ncc2Cl)c1` [Example 326, 5-(cyclohexylmethyl)-N-(5-chloro-4-(2-fluoro-5-((5-hydroxyl-5-methylhexyl)oxy)phenyl)pyridin-2-yl)-4H-1,2,4-triazole-3-carboxamide] was 100 to 1000 nM.
`CCc1ccc(F)c(Cc2nnc(C(=O)Nc3cc(-c4cc(OCCCC(C)(C)O)ccc4Cl)ccn3)[nH]2)c1` [Example 350, N-(4-(2-chloro-5-((4-hydroxy-4-methylpentyl)oxy)phenyl)pyridin-2-yl)-5-(5-ethyl-2-fluorobenzyl)-4H-1,2,4-triazole-3-carboxamide]: the concentration for half-maximal inhibition (IC50) lay in the range of 100 to 1000 nM.
The value for `Cc1ccc(OCCN2CCN(C)CC2)cc1-c1ccnc(NC(=O)c2nnc(Cc3ccccc3)[nH]2)c1` [Example 136, 5-benzyl-N-(4-(2-methyl-5-(2-(4-methylpiperazin-1-yl)ethoxy)phenyl)pyridin-2-yl)-4H-1,2,4-triazole-3-carboxamide] was not above 100 nM; that for `Cc1ccc(OCCC2CCOCC2)cc1-c1cc(NC(=O)c2nnc(Cc3ccccc3F)[nH]2)ncc1F` [Example 498, N-(5-fluoro-4-(2-methyl-5-(2-(tetrahydro-2H-pyran-4-yl)ethoxy)phenyl)pyridin-2-yl)-5-(2-fluorobenzyl)-4H-1,2,4-triazole-3-carboxamide] was not above 100 nM; that for `COCCCSc1ccc(C)c(-c2ccnc(NC(=O)c3nnc(Cc4ccccc4)[nH]3)c2)c1` [Example 59, 5-benzyl-N-(4-(5-(3-methoxypropylthio)-2-methylphenyl)pyridin-2-yl)-4H-1,2,4-triazole-3-carboxamide] was not above 100 nM.
`Cc1ccc(OCCCC(C)(C)O)cc1-c1ccnc(NC(=O)c2nnc(Cc3ccc(F)cc3)[nH]2)c1` [Example 188, 5-(4-fluorobenzyl)-N-(4-(5-((4-hydroxy-4-methylpentyl)oxy)-2-methylphenyl)pyridin-2-yl)-4H-1,2,4-triazole-3-carboxamide]: the IC50 is not above 100 nM.
`Cc1ccc(OCCCC(C)(C)O)cc1-c1ccnc(NC(=O)c2nnc(Cc3cc(Cl)ccc3F)[nH]2)c1` [Example 204, 5-(5-chloro-2-fluorobenzyl)-N-(4-(5-((4-hydroxy-4-methylpentyl)oxy)-2-methylphenyl)pyridin-2-yl)-4H-1,2,4-triazole-3-carboxamide]: the IC50 is not above 100 nM.
The value for `O=C(Nc1cc(-c2cc(OCC3CCOCC3)ccc2Cl)ccn1)c1nnc(Cc2ccccc2)[nH]1` [Example 399, 5-benzyl-N-(4-(2-chloro-5-((tetrahydro-2H-pyran-4-yl)methoxy)phenyl)pyridin-2-yl)-4H-1,2,4-triazole-3-carboxamide] was not above 100 nM.
The figure for `Cc1ccc(OCC(C)(C)O)cc1-c1ccnc(NC(=O)c2nnc(CC3CCCC3)[nH]2)c1` [Example 118, 5-(cyclopentylmethyl)-N-(4-(5-(2-hydroxyl-2-methylpropoxy)-2-methylphenyl)pyridin-2-yl)-4H-1,2,4-triazole-3-carboxamide] is not above 100 nM.
The figure for `O=C(Nc1cc(-c2cc(OCC3CCOCC3)ccc2Cl)ncn1)c1nnc(Cc2ccccc2)[nH]1` [Example 466, 5-benzyl-N-(6-(2-chloro-5-((tetrahydro-2H-pyran-4-yl)methoxy)phenyl)pyrimidin-4-yl)-4H-1,2,4-triazole-3-carboxamide] is not above 100 nM.
Molecule `Cc1ccc(OCCC2CCOCC2)cc1-c1ccnc(NC(=O)c2nnc(CC3CCCCC3)[nH]2)c1` [Example 89, 5-(cyclohexylmethyl)-N-(4-(2-methyl-5-(2-(tetrahydro-2H-pyran-4-yl)ethoxy)phenyl)pyridin-2-yl)-4H-1,2,4-triazole-3-carboxamide] returned a concentration for half-maximal inhibition (IC50) not above 100 nM.
Molecule `CC(C)(C)OCCOc1ccc(Cl)c(-c2ccnc(NC(=O)c3nnc(Cc4ccccc4)[nH]3)c2)c1` [Example 391, 5-benzyl-N-(4-(5-(2-(tert-butoxy)ethoxy)-2-chlorophenyl)pyridin-2-yl)-4H-1,2,4-triazole-3-carboxamide] registered an IC50 not above 100 nM.
The molecule `COc1ccccc1-c1ccnc(NC(=O)c2nnc(Cc3ccccc3)[nH]2)c1` [Example 3, 5-benzyl-N-(4-(2-methoxyphenyl)pyridin-2-yl)-4H-1,2,4-triazole-3-carboxamide] registered an IC50 of 1000 to 10000 nM.
In turn, `Cc1ccc(OCCCC(C)(C)O)cc1-c1ccnc(NC(=O)c2nnc(Cc3cccc(C(F)(F)F)c3F)[nH]2)c1` [Example 210, 5-(2-fluoro-3-trifluoromethylbenzyl)-N-(4-(5-((4-hydroxy-4-methylpentyl)oxy)-2-methylphenyl)pyridin-2-yl)-4H-1,2,4-triazole-3-carboxamide] gave an IC50 of 100 to 1000 nM.
The figure for `Cc1ccc(OCCCCC(C)(C)O)cc1-c1cc(NC(=O)c2nnc(CC3CCCCC3)[nH]2)ncc1Cl` [Example 248, 5-(cyclohexylmethyl)-N-(5-chloro-4-(5-((5-hydroxyl-5-methylhexyl)oxy)-2-methylphenyl)pyridin-2-yl)-4H-1,2,4-triazole-3-carboxamide] is 100 to 1000 nM; for `O=C(Nc1cc(-c2cc(OCCC3CCOCC3)ccc2C(F)(F)F)ccn1)c1nnc(Cc2ccccc2F)[nH]1` [Example 306, 5-(2-fluorobenzyl)-N-(4-(5-(2-(tetrahydro-2H-pyran-4-yl)ethoxy)-2-(trifluoromethyl)phenyl)pyridin-2-yl)-4H-1,2,4-triazole-3-carboxamide] it is not above 100 nM.
